Measured values: patent publication US20260259169A1, “BETA-LACTAMASE SUBSTRATE COMPOUNDS AND ELECTROCHEMICAL DETECTION METHODS USING THEM” (priority 2023, published 2026)

Assays:
CTX-M-14 = CTX-M-14 (Escherichia coli, UniProt Q9L5C7); experiment: Reactivity with recombinant enzyme, amperometric; format: biochemical; conditions: class A ESBL, protein; CF3 compound 2.4 mM, HMRZ-86 1.2 mM; 10 minutes at 37° C.
OXA-48 [1] = experiment: Reactivity with recombinant enzyme, amperometric; format: biochemical; conditions: class D carbapenemase, protein; CF3 compound 2.4 mM, HMRZ-86 1.2 mM; 10 minutes at 37° C.
CTXM = experiment: Amperometric detection of beta-lactamase type producing bacteria strains; format: cell-based; conditions: 6.0 mM substrate, HMRZ-86 1.2 mM; qualitative
Experimental: (§1) The possibility to detect different beta-lactamase type producing bacteria strains was also tested. As reference, a reference medium comprising 1.2 mM beta-lactamase substrate compound HMRZ-86 was prepared as well.

OXA-48 [2] = experiment: as above; format: cell-based; conditions: 6.0 mM substrate, HMRZ-86 1.2 mM; qualitative
Experimental: as §1

OXA-58 = experiment: as above; format: cell-based; conditions: 6.0 mM substrate, HMRZ-86 1.2 mM; qualitative
Experimental: as §1

OXA-40 [3] = experiment: as above; format: cell-based; conditions: 6.0 mM substrate, HMRZ-86 1.2 mM; qualitative
Experimental: as §1

OXA-163 = conditions: class D carbapenemase, protein; CF3 compound 2.4 mM, HMRZ-86 1.2 mM; 10 minutes at 37° C.
IMP-3 = experiment: Reactivity with recombinant enzyme, amperometric; format: biochemical; conditions: class B metallo-beta-lactamase, protein; CF3 compound 2.4 mM, HMRZ-86 1.2 mM; 10 minutes at 37° C.
OXA-51 = experiment: Reactivity with recombinant enzyme, amperometric; format: biochemical; conditions: class D carbapenemase, protein; CF3 compound 2.4 mM, HMRZ-86 1.2 mM; 10 minutes at 37° C.
IMP-61 = experiment: Reactivity with recombinant enzyme, amperometric; format: biochemical; conditions: class B metallo-beta-lactamase, protein; CF3 compound 2.4 mM, HMRZ-86 1.2 mM; 10 minutes at 37° C.
KPC = KPC (Klebsiella pneumoniae, UniProt Q9F663); experiment: Amperometric measurement of oxidation current with KPC in TPTZ buffer; format: biochemical; conditions: 30 minutes at 37° C.
Experimental: A medium comprising 1.2 mM of substrate in a succinate buffer of pH 5.5 was prepared for each of the 8 beta-lactamase substrate compounds (7 inventive ones and the HMRZ-86 reference one).
4 different samples to be analyzed were prepared, each comprising KPC as beta-lactamase in a standard 2,4,6-tri-2-pyridinyl-1,3,5-triazine (TPTZ) buffer but in different concentrations: 239.4, 59.85, 9.975 and 4.985 ng/ml (ng of KPC per mL of TPTZ buffer). The two first concentrations of KPC aim to determine the capacity of the derivative to detect the presence of beta-lactamase whereas the two lowest concentrations aim to address the limit of detection.
Each of the […] (in other words 32 combinations) and incubated for 30 minutes at 37° C. Next, an amperometric measurement was performed on all 32 of the incubated mediums, and the oxidation current was determined. The device used was a Metrohm Dropsens and the electrodes were Metrohm Dropsens SCPE 110 electrodes. The oxidation current is the maximum current value measured between 0.1 V and 0.5 V vs. Ag/AgCl.
To test the impact of the concentration of the beta-lactamase substrate compound on the possibility to detect beta-lactamases, a further medium comprising 2.4 mM of the beta-lactamase substrate compound with R being 2-nitro-4-cyanophenyl was prepared. […] The same four beta-lactamase concentrations as in Example 1 were tested (i.e. the same samples). The incubation and measurement were performed as in Example 1.
A medium comprising 6.0 mM of each substrate in a succinate buffer of pH 5.5 was prepared. 2 different samples to be analyzed were prepared, each comprising KPC as beta-lactamase type in a standard 2,4,6-tri-2-pyridinyl-1,3,5-triazine (TPTZ) buffer, but in different concentrations: 239.4 ng/ml and 59.85 ng/ml, respectively (ng of KPC per mL of TPTZ buffer). Each of the […] was added to each of the 2 mediums (in other words 6 combinations) and incubated for 30 minutes at 37° C. Next, an amperometric measurement was performed on all 6 of the incubated mediums, and the oxidation current was determined. The equipment used was the same as that of Example 1.

NDM-1 = NDM-1 (Klebsiella pneumoniae, UniProt C7C422); experiment: Reactivity with recombinant enzyme, amperometric; format: biochemical; conditions: class B metallo-beta-lactamase, protein; CF3 compound 2.4 mM, HMRZ-86 1.2 mM; 10 minutes at 37° C.
KPC-3 = KPC-3 (Klebsiella pneumoniae, UniProt Q9F663, H272Y); experiment: Reactivity with recombinant enzyme, amperometric; format: biochemical; conditions: class A carbapenemase, protein; CF3 compound 2.4 mM, HMRZ-86 1.2 mM; 10 minutes at 37° C.
IMP-1 = IMP-1 (Serratia marcescens, UniProt P52699); experiment: Reactivity with recombinant enzyme, amperometric; format: biochemical; conditions: class B metallo-beta-lactamase, protein; CF3 compound 2.4 mM, HMRZ-86 1.2 mM; 10 minutes at 37° C.
OXA-40 [4] = experiment: Reactivity with recombinant enzyme, amperometric; format: biochemical; conditions: class D carbapenemase, protein; CF3 compound 2.4 mM, HMRZ-86 1.2 mM; 10 minutes at 37° C.
OXA-143 = experiment: Reactivity with recombinant enzyme, amperometric; format: biochemical; conditions: class D carbapenemase, protein; CF3 compound 2.4 mM, HMRZ-86 1.2 mM; 10 minutes at 37° C.
[5] = NMR stability study in relation to a 22 mM succinate buffer reference; format: physicochemical
Experimental: The stability of the beta-lactamase substrate compounds over time at different temperatures was tested the reference HMRZ-86 of example 1 (at 1.2 mM) and the beta-lactamase substrate compound with R being 2-nitro-4-cyano of Example 1 (at 2.4 mM).
The stability of both beta-lactamase substrate compounds was also tested in relation to a 22 mM succinate buffer reference. […] Contrary to the dimethylformamide (DMF) reference, the degradation in relation to the succinate buffer was similar for both substrate compounds, with the first degradation starting after 2 weeks at both temperatures.

| SMILES | reactivity (detection) (CTX-M-14) | reactivity (detection) (OXA-48 [1]) | detection (oxidation current) (CTXM) | detection (oxidation current) (OXA-48 [2]) | detection (oxidation current) (OXA-58) | detection (oxidation current) (OXA-40 [3]) | reactivity (detection) (OXA-163) | reactivity (detection) (IMP-3) | reactivity (detection) (OXA-51) | reactivity (detection) (IMP-61) | reactivity (detection) (NDM-1) | reactivity (detection) (KPC-3) | reactivity (detection) (IMP-1) | reactivity (detection) (OXA-40 [4]) | reactivity (detection) (OXA-143) | other results |
| --- | --- | --- | --- | --- | --- | --- | --- | --- | --- | --- | --- | --- | --- | --- | --- | --- |
| N#Cc1ccc(C=CC2=C(C(=O)O)N3C(=O)C(NC(=O)C(F)(F)F)C3SC2)cc1 (stereo not drawn) [CF3] | Detected | Detected | capable of detecting | capable of detecting | capable of detecting | capable of detecting | Detected | Detected | Detected | Detected | Detected | Detected | Detected | Detected | Detected | detection of the lowest tested concentration of KPC (KPC; 6.0 mM substrate, KPC 59.85 ng/ml): capable to detect; detection of the highest concentration of KPC (KPC; 6.0 mM substrate, KPC 239.4 ng/ml): capable to detect |
| CC(C)(ON=C(C(=O)N[C@@H]1C(=O)N2C(C(=O)O)=C(C=Cc3ccc([N+](=O)[O-])cc3[N+](=O)[O-])CS[C@H]12)c1csc(N)n1)C(=O)O.O=C(O)C(F)(F)F [HMRZ-86, reference compound] | Detected | Detected | capable of detecting | capable of detecting | does not detect | does not detect | Detected | Detected | Not detected | Detected | Detected | Detected | Detected | Not detected | Detected | time at which the first degradation starts ([5]; 4° C.): 2 weeks; time at which the first degradation starts ([5]; 20° C.): 2 weeks; detection of the beta-lactamases (oxidation current): KPC concentrations detected (KPC; 1.2 mM substrate, succinate buffer pH 5.5, KPC 239.4, 59.85, 9.975 and 4.985 ng/ml): all 4 concentrations; detection of the beta-lactamase concentration of 9.975 ng/mL (KPC; 1.2 mM substrate, KPC 9.975 ng/mL): could detect |
